Laboratory results from patent US20220218837A1, “DRUG CONJUGATE” (priority 2018, published 2022).

Experiments:
HeLa cells (EGFR+/-) = assay: Cell killing / cell viability, HeLa cells
[1] = test system: A431 cells (EGFR++/HER2+/-/CD71+)
[2] = test system: SK-BR-3, JIMT-1, MDA-MB-468, A431, CaSki, HeLa, A2058; assay: Control treatments, relative cell viability on all cell lines; type: cell-based, human; settings: wide range of toxin concentrations, up to 100.000 pM
[3] = test system: HSP27 mRNA in A431 cells (EGFR++); assay: HSP27 gene silencing in A431 cells; type: cell-based, human
Protocol: (§1) Cells were seeded in DMEM (PAN-Biotech GmbH) supplemented with 10% fetal bovine serum (PAN-Biotech GmbH) and 1% penicillin/streptomycin (PAN-Biotech GmbH), in a 96 well plate at 5,000 c/w in 100 μL/well and incubated overnight at 37° C. and 5% CO2. The next day samples were prepared in DMEM and cells were treated.
(§2) RNA isolation and Qper analysis was performed according to standard procedures and protocols.

[4] = test system: HSP27 mRNA in A2058 cells (EGFR-); assay: HSP27 gene silencing in A2058 cells; type: cell-based, human; settings: titrated + fixed 4000 nM SO1861-EMCH, nM of HSP27BNA or of conjugate
Protocol: as §1, §2

CC(=O)OC1C(C)OC(OC2C(C)OC(OC(=O)[C@]34CCC(C)(C)CC3C3=CCC5[C@@]6(C)CC[C@H](OC7OC(C(=O)O)C(O)C(OC8OCC(O)C(O)C8O)C7OC7OC(CO)C(O)C(O)C7O)[C@@](C)(/C=N/NC(=O)CCCCCN7C(=O)C=CC7=O)C6CC[C@@]5(C)[C@]3(C)C[C@H]4O)C(OC3OC(C)C(OC4OCC(O)C(OC5OC(CO)C(O)C(O)C5O)C4O)C(O)C3O)C2O)C(O)C1OC1OCC(O)C(O)C1O (some centres unmarked) [SO1861-EMCH]
concentration above which general toxicity is seen without EGFdianthin (HeLa cells (EGFR+/-); single compound): > 25.000 nM | concentration above which general toxicity is seen without EGFdianthin (A2058 cells (EGFR-); single compound): > 25.000 nM | IC50 cell viability reduction (A2058 cells (EGFR-); titrated + fixed […] EGFdianthin): not affected at all | concentration above which general toxicity is seen without EGFdianthin ([1]; single compound): > 25.000 nM

CC(=O)OC1C(C)OC(OC2C(C)OC(OC(=O)[C@]34CCC(C)(C)CC3C3=CCC5[C@@]6(C)CC[C@H](OC7OC(C(=O)O)C(O)C(OC8OCC(O)C(O)C8O)C7OC7OC(CO)C(O)C(O)C7O)[C@@](C)(C=O)C6CC[C@@]5(C)[C@]3(C)C[C@H]4O)C(OC3OC(C)C(OC4OCC(O)C(OC5OC(CO)C(O)C(O)C5O)C4O)C(O)C3O)C2O)C(O)C1OC1OCC(O)C(O)C1O (some centres unmarked) [SO1861]
IC50 cell viability (general toxicity) (HeLa cells (EGFR+/-); substance alone, in absence of EGFdianthin): strong cell viability reduction | IC50 cell killing (A2058 cells (EGFR-); substance alone, no partner): strong cell viability reduction | IC50 cell killing ([1]; substance alone, no partner): strong cell viability reduction

saporin
influence on cell viability [2]: do not or hardly have any influence on cell viability

HSP27BNA: antisense BNA oligo targeting HSP27 mRNA, sequence 5′-GGCacagccagtgGCG-3′ (antisense GGCACAGCCAGTGGCG; BNA modifications)
IC50 ([3]; titrated + fixed 28.6 nM or 77 nM cetuximab-(Cys-L-SO1861)^3.9): 10 nM | IC50 ([3]; titrated + fixed 4000 nM SO1861-EMCH, nM of HSP27BNA or of conjugate): 10 nM | IC50 [4]: 10 nM
